Consider one compound from publication PMC6261997, “Synergistic enzymatic and bioorthogonal reactions for selective prodrug activation in living systems” (Nature Communications, 2018).

As a reminder, the viability is a per cent measure of how many cells are alive, often set against a control. A higher viability goes with better survival.

Data set [1] is described as follows: MTT cell viability / cytotoxicity assay, HeLa cells. Format: cell-based. The note with it: human; 500 μM 2, 24 h, MTT. As for the experimental part:
(§1) Cells were plated in flat-bottom 96-well plates at a density of 3 × 10^3 cells per well. After 12 h of cell attachment, the cell culture medium was replaced with 100 μL of pre-warmed media containing the compounds at different concentrations. After 24–72 h of incubation, cell proliferation was assessed by the MTT assay. A fresh mixture of 10 μL of thiazolyl blue tetrazolium bromide (MTT) and 90 μL of medium were freshly added to each well. After incubation for 4 h, the medium was gently removed. The formazan crystals that formed were dissolved in 110 μL of DMSO, and the absorbance was subsequently measured with a plate reader (Perkin Elmer) at 490 nm. EC50 values were calculated using Origin software. To measure the cytotoxicity of 2, HeLa cells, HUVECs, Saos-2 cells and CCC-HEH-2 cells were incubated with 100 μL of 1–500 μM 2 for 24 h, and then, cell viability was determined. To measure the cytotoxicity of TCO-Dox or Dox, HeLa cells, HUVECs, Saos-2 cells or CCC-HEH-2 cells were incubated with 200 μL of 0.001–10 μM TCO-Dox or Dox for 72 h, and the cell viability was determined. To determine the cytotoxicity of activated Dox, HeLa cells, HUVECs, […], and then, 2 was removed and 200 μL of 0.0001–10 μM TCO-Dox was added for 72 h of incubation, and cell viability was determined. […]
(§2) Prodrug activation efficacy in cells: Cells were plated on flat bottom 96-well plates at a
(§3) density of 3x10^3 cells per well. After 12 h attachment, cells were incubated with 100 µL
(§4) 500 µM of 2 for 6 h before removing 2 and the addition of 200 µL 0.0001-10 µM of […]

In the next data set the test system is HeLa cells. As to the kind of experiment: Intracellular Tz accumulation by fluorescence liberation from TCO-CMR, HeLa cells. Format: cell-based. As to the method:
Next, we tested the intracellular accumulation of Tz via EISA in an attempt to differentiate cancer cells from normal cells. First, we investigated the accumulation of Tz in HeLa cells and HUVECs over time via fluorescence liberation from TCO-CMR (Fig. 3a). […] The cells were then washed with PBS thoroughly before the addition of an excessive amount of TCO-CMR (100 μL, 50 μM), and the reaction of TCO-CMR with the intracellular accumulated Tz was allowed to proceed for up to 24 h (Supplementary Fig. 8). In this experimental setting, the total liberated fluorescence was proportional to the amount of 3 accumulated inside the cells. […] Therefore, the optimized concentration of 2 (e.g. 500 μM) and incubation time (e.g. 6 h) were selected to differentiate between cancer and normal cells according to liberated fluorescence intensity (Fig. 3c). This differentiation was dependent on the considerably different phosphatase activity between these cell lines (Supplementary Fig. 11), allowing EISA to specifically occur in cancer cells as opposed to normal cells.
All cells were purchased from the National Infrastructure of Cell Line Resource (Beijing, China). HeLa cells, HUVECs and CCC-HEH-2 cells were cultured in a humidified CO2 (5%) incubator at 37 °C in DMEM supplemented with 10% foetal bovine serum (FBS, Gibco) and 1% Pen Strep (PS, Gibco). Saos-2 cells were cultured in a humidified CO2 (5%) incubator at 37 °C in McCoy’s 5A medium supplemented with 10% FBS and 1% PS. Cells were plated in flat-bottom 96-well plates (Corning) at a density of 10^4 cells per well and allowed to attach for 12 h. Then, the culture medium was replaced with 100 μL of pre-warmed medium containing 2 at different concentrations (100–500 μM). After incubation for different durations (1–24 h), the cells were rinsed with PBS, and then 100 μL of 50 μM TCO-CMR (dissolved in PBS) was added for real-time detection of the fluorescence intensity of coumarin in a plate reader (Perkin Elmer).

For the next data set, the system named is HeLa tumours. As to the kind of experiment: Tumour inhibition test, subcutaneous HeLa xenograft. Format: in vivo, BALB/c nude mice. As to the method: All animal studies were performed in accordance with the Institutional Animal Use and Care Regulations approved by the National Institutes of Health Clinical Center/Animal Care and Use Committee (NIH CC/ACUC). Athymic female nude mice (5–6 weeks old) were purchased from Beijing Huafukang Bioscience Co., Ltd., and raised in a specific-pathogen-free barrier facility. Tumour-bearing mice were established by subcutaneously injecting a suspension of 10^6 HeLa cells per mouse into the front flank of each nude mouse.
After 14 days, the mice were sacrificed.

The nature of data set [2]: MTT cell viability / cytotoxicity assay, HUVECs. Format: cell-based. The following applies: human; 500 μM 2, 24 h, MTT. As for the experimental part: as §1, §2, §3, §4
Data set [3] is described as follows: Self-assembly and hydrogelation on addition of alkaline phosphatase (ALP). Format: physicochemical. As for the experimental part: The synthesis of the assembly precursor (NapK(Tz)YpF, 2, Fig. 2a) was straightforward (see Supplementary Methods for a detailed protocol). Because KYF was determined to be an excellent self-assembly motif in a tri-peptide census survey, we constructed our assembling molecules based on this sequence. The conjugation of a strong π–π stacking moiety, namely, a naphthalene group, to the N terminus may further enhance the self-assembly potential of this molecule. Phosphorylation on tyrosine (Y) enabled the responsiveness of this motif to phosphatase. All of these components were sequentially conjugated via typical Fmoc-based solid-phase peptide synthesis (SPPS) to yield NapKYpF (1). The capability of self-assembly and hydrogelation of 1 was confirmed by the addition of 10 U mL^−1 alkaline phosphatase (ALP) into a solution of 1 (Supplementary Fig. 1). The dephosphorylated product of 1 formed transparent hydrogels with a network of uniform nanofibres (Supplementary Fig. 2), and the critical hydrogelation concentration was 1.0 mg mL^−1. The ε-amine of Lys on 1 was conjugated with the Tz derivative Tz-COOH (2-(4-(6-methyl-1,2,4,5-tetrazin-3-yl)phenyl) acetic acid) via an NHS-mediated ester–amide exchange reaction to yield 2. […] Upon the addition of ALP (10 U mL^−1) into the solution of 2, a transparent purple hydrogel was formed within 1 h (Fig. 2b inset), and the critical hydrogelation concentration was 1.0 mg mL^−1 (Supplementary Fig. 3). Similar to the formation of a typical hydrogel, investigation by transmission electron microscopy (TEM) confirmed the existence of numerous uniform nanofibres, each with a diameter of approximately 12 nm, which was close to that of hydrogel 1 (Fig. 2b).

Each structure is given as a SMILES string.

Regarding `Cc1nnc(-c2ccc(CC(=O)NCCCCC(NC(=O)Cc3ccc4ccccc4c3)C(=O)NC(Cc3ccc(OP(=O)(O)O)cc3)C(=O)NC(Cc3ccccc3)C(=O)O)cc2)nn1` (centres unmarked) [compound 2, NapK(Tz)YpF], the viability at 24 h, 500 μM in data set [1] and in data set [2] was over 85% in each case. Moreover, the “incubation time at which liberated fluorescence reaches maximum value” in the data set on HeLa cells (500 μM 2, then 50 μM TCO-CMR) is “approximately 6 h”. The “fluorescence emission of liberated coumarin in HeLa cells” value in the data set on HeLa cells (pre-incubated with 400 or 500 μM 2) is “increased significantly”. The “histological examination of dissected tumours (HE staining)” value in the data set on HeLa tumours (after treatment for 14 days) is “the HeLa cells remained normal”. Moreover, the tumour growth result in the data set with HeLa tumours (i.v., three courses (day 0, 3, 6), 50 mg kg^−1 2, 30 mg kg^−1 TCO-Dox, 5 mg kg^−1 Dox, or 50 mg kg^−1 2 then 30 mg kg^−1 TCO-Dox after 2 h) is “rapid growth similar to that observed in the saline control group”. Besides, the “time to formation of hydrogel” value in data set [3] (ALP 10 U mL^−1) is listed as at most 1 h. The compound also displayed a critical hydrogelation concentration in data set [3] (after addition of 10 U mL^−1 ALP (dephosphorylated product)) of 1.0 mg/mL.
